Test results reported in patent US10294202B2, “Pyrrolidinones as herbicides” (FMC Corporation, priority 2013, dated 2019).

Experiments:
[1] = system: nightshade; assay: Test C pre-/postemergence herbicide test; assay type: in vivo, Solanum ptycanthum; conditions: Preemergence
Outline: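 Greenhouse plants scored visually against untreated controls 13–15 days after treatment, 0 = no effect, 100 = complete control. Test chemicals in a non-phytotoxic solvent with surfactant were applied either to soil (loam/sand) at planting or to foliage of 1- to 4-leaf plants, 2–18 cm tall.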

[2] = system: cupgrass, woolly; assay: Test C pre-/postemergence herbicide test; assay type: in vivo, Eriochloa villosa
Description: (§1) Seeds of plant species selected from blackgrass (Alopecurus myosuroides), ryegrass, Italian (Italian ryegrass, Lolium multiflorum), wheat (winter wheat, Triticum aestivum), galium (catchweed bedstraw, Galium aparine), corn (Zea mays), crabgrass, large (large crabgrass, Digitaria sanguinalis), foxtail, giant (giant foxtail, Setaria faberii), johnsongrass (Sorghum halepense), lambsquarters (Chenopodium album), morningglory (Ipomoea coccinea), nutsedge, yellow (yellow nutsedge, Cyperus esculentus), pigweed (Amaranthus retroflexus), ragweed (common ragweed, Ambrosia elatior), soybean (Glycine max), barnyardgrass (Echinochloa crus-galli), oilseed rape (Brassica napus), waterhemp (common waterhemp, Amaranthus rudis), kochia (Kochia scoparia), oat, wild (wild oat, Avena fatua), surinam grass (Brachiaria decumbens), foxtail, green (green foxtail, Setaria viridis), goosegrass (Eleusine indica), bromegrass, downy (downy bromegrass, Bromus tectorum), nightshade (eastern black nightshade, Solanum ptycanthum), cocklebur (common cocklebur, Xanthium strumarium), cupgrass, woolly (woolly cupgrass, Eriochloa villosa), bermudagrass (Cynodon dactylon), sunflower, (common oilseed sunflower, Helianthus annuus), Russian thistle (Salsola kali) and velvetleaf (Abutilon theophrasti) were planted into a blend of loam soil and sand and treated preemergence with test chemicals formulated in a non-phytotoxic solvent mixture which included a surfactant. At the same time, plants selected from these crop and weed species and also barley (winter barley, Hordeum vulgare), […]), chickweed (common chickweed, Stellaria media), deadnettle (henbit deadnettle, Lamium amplexicaule), and canarygrass (littleseed canarygrass, Phalaris minor) were planted in pots containing Redi-Earth® planting medium (Scotts Company, 14111 Scottslawn Road, Marysville, Ohio 43041) comprising spaghnum peat moss, vermiculite, wetting agent and starter nutrients and treated with postemergence applications of test chemicals formulated in the same manner. Plants ranged in height from 2 to 18 cm (1- to 4-leaf stage) for postemergence treatments. Treated plants and controls were maintained in a greenhouse for 13 to 15 days, after which time all species were compared to controls and visually evaluated. Plant response ratings, summarized in Table C, are based on a scale of 0 to 100 where 0 is no effect and 100 is complete control. A dash (-) response means no test result.

[3] = system: sunflower; assay: Test C pre-/postemergence herbicide test; assay type: in vivo, Helianthus annuus; conditions: Preemergence
Description: as §1

[4] = system: pigweed, palmer; assay: Test E preemergence herbicide test; assay type: in vivo, Amaranthus palmeri; design: key: 0 = no effect, 100 = complete control
Outline: (§2)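 Seeds sown in silt loam soil received preemergence treatment with compound in a non-phytotoxic solvent mixture containing surfactant. After 21 days in the greenhouse, plants were visually rated against untreated controls on a 0 (no effect) to 100 (complete control) scale.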

[5] = system: sandbur; assay: Test E preemergence herbicide test; assay type: in vivo, Cenchrus echinatus; design: key: 0 = no effect, 100 = complete control
Description: (§3) Seeds of plant species selected from corn (Zea mays), soybean (Glycine max), velvetleaf (Abutilon theophrasti), lambsquarters (Chenopodium album), wild poinsettia (Euphorbia heterophylla), pigweed, palmer (palmer pigweed, Amaranthus palmeri), waterhemp (common waterhemp, Amaranthus rudis), surinam grass (Brachiaria decumbens), crabgrass, large (large crabgrass, Digitaria sanguinalis), crabgrass, Brazil (Brazilian crabgrass, Digitaria horizontalis), panicum, fall (fall panicum, Panicum dichotomiflorum), foxtail, giant (giant foxtail, Setaria faberii), foxtail, green (green foxtail, Setaria viridis), goosegrass (Eleusine indica), johnsongrass (Sorghum halepense), ragweed (common ragweed, Ambrosia elatior), barnyardgrass (Echinochloa crus-galli), sandbur (southern sandbur, Cenchrus echinatus), arrowleaf […] rhombifolia), ryegrass, Italian (Italian ryegrass, Lolium multiflorum), dayflower, VA (Virginia dayflower, Commelina virginica), field bindweed (Convolvulus arvensis), morningglory (Ipomoea coccinea), nightshade (eastern black nightshade, Solanum ptycanthum), kochia (Kochia scoparia), nutsedge, yellow (yellow nutsedge, Cyperus esculentus), cocklebur (common cocklebur, Xanthium strumarium), smartweed (ladysthumb smartweed, Polygonum Persicaria) and beggarticks (hairy beggarticks, Bidens pilosa), were planted into a silt loam soil and treated preemergence with test chemicals formulated in a non-phytotoxic solvent mixture which included a surfactant. Treated plants and controls were maintained in a greenhouse for 21 days, after which time all species were compared to controls and visually evaluated. Plant response ratings, summarized in Table E, are based on a scale of 0 to 100 where 0 is no effect and 100 is complete control. A dash (-) response means no test result.

[6] = system: arrowleaf sida; assay: Test E preemergence herbicide test; assay type: in vivo, Sida rhombifolia; design: key: 0 = no effect, 100 = complete control
Outline: as §2

[7] = system: ryegrass, Italian; assay: Test E preemergence herbicide test; assay type: in vivo, Lolium multiflorum; design: key: 0 = no effect, 100 = complete control
Description: as §3

[8] = system: nutsedge, yellow; assay: Test E preemergence herbicide test; assay type: in vivo, Cyperus esculentus; design: key: 0 = no effect, 100 = complete control
Outline: as §2

[9] = 125 g ai/ha, scale 0 to 100 (0 no effect, 100 complete control)
[10] = Postemergence, 31 g ai/ha, scale 0 (no effect) to 100 (complete control)
[11] = Postemergence, 62 g ai/ha, scale 0 to 100 (0 no effect, 100 complete control)
[12] = Postemergence, 125 g ai/ha, scale 0 to 100 (0 no effect, 100 complete control)
[13] = Postemergence, 250 g ai/ha, scale 0 to 100 (0 no effect, 100 complete control)
[14] = Preemergence, 62 g ai/ha, scale 0 to 100
[15] = Preemergence, 125 g ai/ha, scale 0 to 100 (0 no effect, 100 complete control)
[16] = Preemergence, 31 g ai/ha, scale 0 to 100 (0 no effect, 100 complete control)
[17] = Preemergence, 250 g ai/ha, scale 0 to 100 (0 no effect, 100 complete control)

SMILES | Plant response rating, Nightshade ([1]; 62 g ai/ha, scale 0 to 100) | Plant response rating, Nightshade [1, 9] | Plant response rating, Cupgrass, Woolly [2, 10] | Plant response rating, Cupgrass, Woolly [2, 11] | Plant response rating, Cupgrass, Woolly [2, 12] | Plant response rating, Cupgrass, Woolly [2, 13] | Plant response rating, Cupgrass, Woolly [2, 14] | Plant response rating, Cupgrass, Woolly [2, 15] | Cupgrass, Woolly plant response rating [2, 16] | Plant response rating, Cupgrass, Woolly [2, 17] | Plant response rating, Sunflower ([3]; 62 g ai/ha, scale 0 to 100) | Plant response rating, Sunflower [3, 9] | Plant response rating, Pigweed, Palmer ([4]; 16 g ai/ha) | Plant response rating, Pigweed, Palmer ([4]; 31 g ai/ha) | Plant response rating, Pigweed, Palmer ([4]; 62 g ai/ha) | Plant response rating, Pigweed, Palmer ([4]; 125 g ai/ha) | Plant response rating, Pigweed, Palmer ([4]; 250 g ai/ha) | Plant response rating, Sandbur ([5]; 16 g ai/ha) | Plant response rating, Sandbur ([5]; 31 g ai/ha) | Plant response rating, Sandbur ([5]; 62 g ai/ha) | also measured
O=C1NCC(c2ccc(F)c(F)c2)C1C(=O)Nc1cccc(F)c1F (stereo not drawn) [Compound 17, N-(2,3-difluorophenyl)-4-(3,4-difluorophenyl)-2-oxo-3-pyrrolidinecarboxamide] | 20 | 40 | 0 | 0 | 0 | 0 | 85 | 90 | 80 | 95 | 10 | 20 | 0 | 0 | 0 | 0 | 0 | 0 | 0 | 50 | Plant response rating, Sandbur ([5]; 125 g ai/ha): 65; Plant response rating, Sandbur ([5]; 250 g ai/ha): 95; Plant response rating, Arrowleaf Sida ([6]; 16 g ai/ha): 0; Plant response rating, Arrowleaf Sida ([6]; 31 g ai/ha): 0; Plant response rating, Arrowleaf Sida ([6]; 62 g ai/ha): 0; Plant response rating, Arrowleaf Sida ([6]; 125 g ai/ha): 0; Plant response rating, Arrowleaf Sida ([6]; 250 g ai/ha): 0; Plant response rating, Ryegrass, Italian ([7]; 16 g ai/ha): 0; Plant response rating, Ryegrass, Italian ([7]; 31 g ai/ha): 0; Plant response rating, Ryegrass, Italian ([7]; 62 g ai/ha): 0; Plant response rating, Ryegrass, Italian ([7]; 125 g ai/ha): 0; Plant response rating, Ryegrass, Italian ([7]; 250 g ai/ha): 0; Plant response rating, Nutsedge, Yellow ([8]; 16 g ai/ha): 0; Plant response rating, Nutsedge, Yellow ([8]; 31 g ai/ha): 0; Plant response rating, Nutsedge, Yellow ([8]; 62 g ai/ha): 0; Plant response rating, Nutsedge, Yellow ([8]; 125 g ai/ha): 0; Plant response rating, Nutsedge, Yellow ([8]; 250 g ai/ha): 15
O=C1NCC(c2ccc(Cl)c(Cl)c2)C1C(=O)Nc1ccccc1F (racemic) [Compound 14] | 0 |  |  |  |  |  | 0 | 0 | 0 | 80 | 0 | 0 | 0 | 0 | 0 | 0 | 0 | 0 | 0 | 0 | Plant response rating, Sandbur ([5]; 125 g ai/ha): 0; Plant response rating, Sandbur ([5]; 250 g ai/ha): 30; Plant response rating, Arrowleaf Sida ([6]; 16 g ai/ha): 0; Plant response rating, Arrowleaf Sida ([6]; 31 g ai/ha): 0; Plant response rating, Arrowleaf Sida ([6]; 62 g ai/ha): 0; Plant response rating, Arrowleaf Sida ([6]; 125 g ai/ha): 0; Plant response rating, Arrowleaf Sida ([6]; 250 g ai/ha): 0; Plant response rating, Ryegrass, Italian ([7]; 16 g ai/ha): 0; Plant response rating, Ryegrass, Italian ([7]; 31 g ai/ha): 0; Plant response rating, Ryegrass, Italian ([7]; 62 g ai/ha): 0; Plant response rating, Ryegrass, Italian ([7]; 125 g ai/ha): 0; Plant response rating, Ryegrass, Italian ([7]; 250 g ai/ha): 0; Plant response rating, Nutsedge, Yellow ([8]; 16 g ai/ha): 0; Plant response rating, Nutsedge, Yellow ([8]; 31 g ai/ha): 0; Plant response rating, Nutsedge, Yellow ([8]; 62 g ai/ha): 0; Plant response rating, Nutsedge, Yellow ([8]; 125 g ai/ha): 0; Plant response rating, Nutsedge, Yellow ([8]; 250 g ai/ha): 0
O=C1NCC(c2ccc(Cl)c(F)c2)C1C(=O)Nc1cccc(F)c1F (stereo not drawn) [Compound 52] | 0 | 0 | 0 | 5 | 5 | 10 | 70 | 75 | 40 | 85 | 0 | 0 |  |  |  |  |  |  |  |  | 
O=C1NCC(c2cc(F)c(F)c(F)c2)C1C(=O)Nc1cccc(F)c1F (stereo not drawn) [Compound 48] | 0 | 0 | 0 | 5 | 5 |  | 70 | 85 | 70 |  | 0 | 0 |  |  |  |  |  |  |  |  | Plant response rating, Nightshade ([1]; 16 g ai/ha, scale 0 to 100): 0; Plant response rating, Cupgrass, Woolly ([2]; Postemergence, 16 g ai/ha, scale 0 to 100 (0 no effect, 100 complete control)): 0; Plant response rating, Cupgrass, Woolly ([2]; Preemergence, 16 g ai/ha, scale 0 to 100): 25; Plant response rating, Sunflower ([3]; 16 g ai/ha, scale 0 to 100): 0
O=C1NCC(c2ccc(F)c(Cl)c2)C1C(=O)Nc1ccccc1F (stereo not drawn) [Compound 60] | 0 | 0 | 0 | 0 | 5 |  | 75 | 75 | 55 |  | 0 | 0 |  |  |  |  |  |  |  |  | 
